In general, GI50 refers to the concentration that inhibits growth by half.

The subject of one assay is CHO. Kind of assay: Cell growth (Cell Titer-Glo viability), CHO. The conditions noted are these: Cricetulus griseus; CHO Chinese hamster ovary cell, 72 hrs; read-out: GI50. Format: cell-based, Chinese hamster. (In general: ATP-based viability assays read luminescence as a measure of living cells.)
The subject of another assay is CHL. As to the kind of experiment: Cell growth (Cell Titer-Glo viability), CHL. Format: cell-based, Chinese hamster. The conditions noted are these: Cricetulus griseus; CHL Chinese hamster lung cell, 72 hrs; read-out: GI50.
For a further assay, the system named is NCI-H2228. Kind of assay: Growth of cancer cells (Cell Titer-Glo viability), NCI-H2228. In kind it is cell-based. The conditions noted are these: Homo sapiens; NCI-H2228 (wild-type ALK), 72 hrs.
The next assay relates to BaF3-FL-EGFR-T790M-L858R. As to the kind of experiment: Cell growth (Cell Titer-Glo viability), BaF3-FL-EGFR-T790M-L858R. Format: cell-based. The conditions noted are these: Mus musculus; BaF3-FL-EGFR-T790M-L858R (EGFR T790M/L858R mutant kinase), 72 hrs. The method, then: By testing the effect of the novel kinase inhibitors on the proliferation of cancer cells, the selectivity of the compounds of the present disclosure in inhibiting the proliferation of cancer cells was further assessed. […]
(§1) The number of viable cells was determined quantitatively by a microplate reader using Cell Titer-Glo® (Promega, US) chemiluminescence cell viability assay kit.

The test system of the next assay is NCI-H3122. As to the kind of experiment: Growth of cancer cells (Cell Titer-Glo viability), NCI-H3122. Format: cell-based. The conditions noted are these: Homo sapiens; NCI-H3122 (expressing ALK gene), 72 hrs; read-out: GI50.
The next assay deals with PC-9. As to the kind of experiment: Growth of cancer cells (Cell Titer-Glo viability), PC-9. Format: cell-based. Particulars: Homo sapiens; PC-9 (EGFR delE746_A750 mutant), 72 hrs. Summed up: (§2)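 Cells are counted as viable by CellTiter-Glo chemiluminescence. Murine BaF3 lines depend on a stably transfected TEL-fused kinase after IL-3 withdrawal, and the NSCLC lines express mutant EGFR.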

For the next assay, the system named is A549. Kind of assay: Growth of cancer cells (Cell Titer-Glo viability), A549. Format: cell-based. Particulars: Homo sapiens; A549 (wild-type EGFR), 72 hrs.
A further assay relates to BaF3-NPM-ALK. As to the kind of experiment: Cell growth (Cell Titer-Glo viability), BaF3-NPM-ALK. Format: cell-based. Particulars: Mus musculus; BaF3-NPM-ALK (stably expressing ALK kinase), 72 hrs.
Another assay concerns BaF3-TEL-ALK. As to the kind of experiment: Cell growth (Cell Titer-Glo viability), BaF3-TEL-ALK. The conditions noted are these: Mus musculus; BaF3-TEL-ALK (stably expressing ALK kinase), 72 hrs. Format: cell-based. The method, boiled down: (§3)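 Mouse BaF3 cells retrovirally transduced with human kinase fused to N-terminal TEL fragment, then IL-3 withdrawn so proliferation depends on the transgene. HCC827 carries EGFR del19 and NCI-H3255 EGFR L858R. Viable cells were quantified by CellTiter-Glo chemiluminescence on a microplate reader.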

Another assay concerns NCI-H1975. As to the kind of experiment: Growth of cancer cells (Cell Titer-Glo viability), NCI-H1975. Format: cell-based. Particulars: Homo sapiens; NCI-H1975 (EGFR L858R/T790M double mutant), 72 hrs. Summed up:
as §2

The next assay deals with NCI-H2122. As to the kind of experiment: Growth of cancer cells (Cell Titer-Glo viability), NCI-H2122. In kind it is cell-based. Particulars: Homo sapiens; NCI-H2122 (wild-type EGFR), 72 hrs.
The next assay deals with BaF3-ALK-F1174L. As to the kind of experiment: Cell growth (Cell Titer-Glo viability), BaF3-ALK-F1174L. In kind it is cell-based. The conditions noted are these: Mus musculus; BaF3-ALK-F1174L (mutant ALK F1174L kinase), 72 hrs. Summed up: as §3
For a further assay, the system named is BaF3. As to the kind of experiment: Cell growth (Cell Titer-Glo viability), BaF3. Format: cell-based. The conditions noted are these: BaF3 mouse primary B cell, 72 hrs.
The test system of another assay is A431. Kind of assay: Growth of cancer cells (Cell Titer-Glo viability), A431. In kind it is cell-based. Particulars: Homo sapiens, A-431; A431 (wild-type EGFR), 72 hrs; read-out: GI50.
For a further assay, the system named is HCC827. Kind of assay: Growth of cancer cells (Cell Titer-Glo viability), HCC827. Format: cell-based. The conditions noted are these: Homo sapiens; HCC827 (mutant EGFR del19), 72 hrs. The method, boiled down:
as §3

Assay [1] has as its system EGFR protein (wild-type EGFR, A549). As to the kind of experiment: Effect on signaling pathway in cells, A549. In kind it is cell-based, human. The conditions noted are these: control at 1 μM, 4 h, compared with Compound 1 (little effect). The text has this: In four cell lines (all purchased from ATCC) including non-small cell lung cancer cell line A549 (expressing wild-type EGFR gene), non-small cell lung cancer cell line H1975 (expressing EGFR L858R/T790M double mutant gene), non-small cell lung cancer cell line H3255 (expressing EGFR L858R mutant gene) and non-small cell lung cancer cell line PC-9 (expressing EGFR delE746_A750 mutant gene), the effect of Compound 1 on EGFR or other protein kinases related to signaling pathways of EGFR such as Stat3, AKT, ErK, eIF4E, 4EBP1, P70S6K was assessed by assaying a number of cellular biochemical and functional endpoints. […] The effect of Compound 1 on phosphorylation of Stat3Y705, AKT T308, AKT 5473, Erk T202/204, EGFR Y1068, P70S6K Thr389, eIF4E Ser209, Erk T202/204, 4EBP1 (Thr37/46) in these cell lines was assayed (FIGS. 1a to 1d).

Another assay concerns HCC4006. As to the kind of experiment: Growth of cancer cells (Cell Titer-Glo viability), HCC4006. Particulars: Homo sapiens; HCC4006 (mutant EGFR del19), 72 hrs. In kind it is cell-based.
Text: (§4) By testing the effect of the novel kinase inhibitors on the proliferation of cancer cells, the selectivity of the compounds of the present disclosure in inhibiting the proliferation of cancer cells was further assessed. In this example, human non-small cell lung cancer cell NCI-H1975 (expressing EGFR L858R/T790M double mutant gene), human skin squamous carcinoma cell A431 (expressing wild-type EGFR gene), non-small cell lung cancer NCI-H3255 (expressing EGFR L858R mutant gene), non-small cell lung cancer cell NCI-H3122 (expressing ALK gene), human non-small cell lung cancer cell A549 (expressing wild-type EGFR gene), human non-small cell lung cancer cell NCI-H2122 (expressing wild-type EGFR gene), human non-small cell lung cancer cell NCI-H460 (expressing wild-type EGFR gene), human non-small cell lung cancer cell PC-9 (expressing EGFR delE746_A750 mutant gene), Chinese hamster ovary cell CHO (Cricetulus griseus, hamster, Chinese, ovary), Chinese hamster lung cell CHL, human non-small cell lung cancer cell HCC827 (expressing mutant EGFR del19 gene), human lung adenocarcinoma cell HCC4006 (expressing mutant EGFR del19 gene), human non-small cell lung cancer cell NCI-H2228 (expressing wild-type ALK gene), and mouse primary B cell BaF3 were used, and the above cells were all purchased from ATCC (US). In addition, mouse BaF3-TEL-ALK (stably expressing ALK kinase), mouse BaF3-ALK-F1174L (stably expressing mutant ALK F1174L kinase), mouse BaF3-NPM-ALK (stably expressing ALK kinase), mouse BaF3-TEL-EGFR (stably expressing EGFR kinase), mouse BaF3-TEL-EGFR-T790M (stably expressing EGFR T790M mutant kinase), mouse BaF3-FL-EGFR-Del19 (stably expressing EGFR delE746_A750 mutant kinase), mouse BaF3-TEL-EGFR-L858R (stably expressing EGFR L858R mutant kinase), mouse BaF3-FL-EGFR-T790M-L858R (stably expressing EGFR T790M/L858R mutant kinase), mouse BaF3-TEL-INSR (stably expressing INSR protein), mouse BaF3-TEL-IGF1R (stably expressing IGF1R Protein), mouse BaF3-EML4-ALK (stably expressing EML4-ALK Protein), mouse BaF3-TEL-JAK3 (stably expressing JAK3 kinase protein), mouse BaF3-TEL-CSF1R (stably expressing CSF1R protein), and mouse BaF3-TEL-ALK-F1196M (stably expressing ALK F1196M mutant kinase) were also used in this example. The above cell lines were all established by our laboratory via the following process: kinase proteins or protein domain sequences of human ALK, ALK F1174L, EGFR, EGFR T790M, EGFR delE746_A750, EGFR L858, EGFR T790M/L858R, INSR, IGF1R, EML4-ALK, JAK3, CSF1R, ALK F1196M were amplified respectively by PCR, and were respectively inserted into MSCV-Puro vector (Clontech) with N-terminal TEL fragments and/or NPM fragments and/or TPR fragments; the resultants were stably transfected into mouse BaF3 cells by the means of retrovirus, and the IL-3 growth factors were removed, and eventually the ALK, ALK F1174L, EGFR, EGFR T790M, EGFR delE746_A750, EGFR L858, EGFR T790M/L858R, INSR, IGF1R, EML4-ALK, JAK3, CSF1R, ALK F1196M-transferred protein dependent cell lines were obtained.
as §1

A further assay concerns BaF3-TEL-EGFR. As to the kind of experiment: Cell growth (Cell Titer-Glo viability), BaF3-TEL-EGFR. Format: cell-based. The conditions noted are these: Mus musculus; BaF3-TEL-EGFR (stably expressing EGFR kinase), 72 hrs. Summed up:
as §3

Another assay relates to NCI-H3255. Kind of assay: Growth of cancer cells (Cell Titer-Glo viability), NCI-H3255. Format: cell-based. Particulars: Homo sapiens; NCI-H3255 (EGFR L858R mutant), 72 hrs. The method, boiled down: as §3
The test system of a further assay is BaF3-TEL-EGFR-T790M. Kind of assay: Cell growth (Cell Titer-Glo viability), BaF3-TEL-EGFR-T790M. In kind it is cell-based. Particulars: Mus musculus; BaF3-TEL-EGFR-T790M (EGFR T790M mutant kinase), 72 hrs. The method, boiled down: as §3
The test system of another assay is NCI-H460. Kind of assay: Growth of cancer cells (Cell Titer-Glo viability), NCI-H460. Particulars: Homo sapiens; NCI-H460 (wild-type EGFR), 72 hrs. In kind it is cell-based.
Text: as §4, §1

In the case of `C=CC(=O)Nc1cc(Nc2ncc(Cl)c(Nc3ccccc3S(=O)(=O)C(C)C)n2)c(OC)cc1N1CCN(C(C)C)CC1` [Compound 11, N-(5-(5-chloro-4-(2-(isopropylsulfonyl)phenylamino)pyrimidin-2-ylamino)-2-(4-isopropylpiperazin-1-yl)-4-methoxyphenyl)acrylamide], the GI50 with CHO was 1.3 µM; with CHL, 1.1 µM; in the assay on NCI-H2228, less than 0.003 µM; in the assay on BaF3-FL-EGFR-T790M-L858R, 0.002 µM; with NCI-H3122 it was less than 0.0003 µM; in the assay with PC-9, 0.024 µM. Also, the concentration for 50% growth inhibition (GI50) in the assay with A549 was 0.21 µM; in the assay on BaF3-NPM-ALK, less than 0.0003 µM; with BaF3-TEL-ALK, less than 0.003 µM; with NCI-H1975, 0.025 µM; in the assay with NCI-H2122 it was 0.19 µM; in the assay on BaF3-ALK-F1174L, 0.53 µM. In addition, the GI50 in the assay with BaF3 amounted to 0.45 µM; in the assay with A431, 0.14 µM.

For the molecule `C=CC(=O)Nc1cccc(Oc2nc(Nc3ccc(N4CCN(C)CC4)cc3OC)ncc2Cl)c1` [WZ4002, reference compound], the GI50 worked out at 0.0012 µM in the assay on HCC827; 1.1 µM with NCI-H2228; 3.2 µM with NCI-H3122; 0.027 µM in the assay on PC-9; 0.0072 µM in the assay on HCC4006; 1.4 µM in the assay with BaF3-NPM-ALK. Also, the GI50 stood at 0.021 µM in the assay on NCI-H1975; 1.6 µM in the assay with BaF3-TEL-EGFR; 0.39 µM in the assay on NCI-H3255; 0.046 µM with BaF3-TEL-EGFR-T790M; 5.7 µM in the assay on NCI-H2122; 8.1 µM in the assay with NCI-H460. For the same molecule, the “effect on phosphorylation of EGFR protein and of STAT3, S6K, AKT, ERK, eIF4E” value in assay [1] is recorded as “behaved similarly”.

The values are drawn from patent US10350210B2, “EGFR and ALK dual inhibitor” (PRECEDO PHARMACEUTICALS CO., LTD, priority 2015, dated 2019).
